From patent publication US10155798B2, “Anti-obesity compounds derived from neuromedin U” (The Regents of the University of California, priority 2013, dated 2018)
*1 amine or outer side, *2 acyl side, *3 side chain or, on linkers, in order; H or OH if unused. Where a SMILES comes first, the peptide text is derived from it. Bridges are numbered along the chain shown (N, C = ends). [ ]: non-standard residue; d: D form. The star is where a group is joined. mXylylene(5-CH2SC16H33) = CCCCCCCCCCCCCCCCSCc1cc(C[*:1])cc(C[*:2])c1; X1 = CCCCCCCCCCCCCCCCN(CCCCCCCCCCCCCCCC)CCCCCC(=O)*; Tic = O=C(O)[C@@H]1Cc2ccccc2CN1; Aib = CC(C)(N)C(=O)O; Ahx = NCCCCCC(=O)O

What was measured:
[1] = biological target: T1, NMUR2 (neuromedin U 2 receptor) (Homo sapiens, UniProt Q9GZQ4); experiment: Calcium mobilization assay, HEK-NMU2 cells; type: cell-based; settings: HEK293 cells expressing NMU2 receptor, NA = not active
T1 construct: expressed in transfected cells; host or cells: HEK293 (HEK-NMU2)
T1 sequence (Q9GZQ4 whole entry): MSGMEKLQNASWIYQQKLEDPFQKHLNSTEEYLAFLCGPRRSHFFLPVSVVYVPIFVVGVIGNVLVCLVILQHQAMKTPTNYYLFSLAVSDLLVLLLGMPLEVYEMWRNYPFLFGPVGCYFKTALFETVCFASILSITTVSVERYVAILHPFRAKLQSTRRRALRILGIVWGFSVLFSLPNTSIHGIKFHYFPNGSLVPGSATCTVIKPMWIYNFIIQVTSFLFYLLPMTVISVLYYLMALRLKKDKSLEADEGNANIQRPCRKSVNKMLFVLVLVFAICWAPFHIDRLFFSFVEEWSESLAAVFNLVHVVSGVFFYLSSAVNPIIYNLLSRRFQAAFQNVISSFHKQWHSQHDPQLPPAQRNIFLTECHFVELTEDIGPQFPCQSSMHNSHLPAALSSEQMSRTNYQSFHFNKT
Experimental: (§1) To test whether neuromedin U can be modified/derivatized to yield truncated bioactive compound(s) that may be useful as therapeutics, we synthesized a small library (25 peptides) of hNMU analogs utilizing various stabilization protocols, including: cyclization, lipidation, introduction of α,α-disubstituted and N-methylated amino acids, retro-inverso-approach, and combination of such (see Table 1). Subsequently all analogues were tested against human neuromedin U receptors (NMUR1 and NMUR2) in calcium mobilization assay (collaboration with Dr Gary Willars, University of Leicester, UK).
HEK293 cells expressing either the neuromedin U 1 receptor or neuromedin U 2 receptor (HEK-NMU1 and HEK-NMU2 respectively) were grown to approximately 90% confluence in ELISA strip plates (96-well format) pre-coated with poly-D-lysine (0.1% w/v) and loaded for 45 min at 37° C. with 2 iM fluo-4-AM in Krebs'-HEPES buffer with bovine serum albumin (KHB-BSA; composition: 10 mM HEPES; 4.2 mM NaHCO3; 11.7 mM D-glucose; 1.18 mM MgSO4.7H2O; 1.18 mM KH2PO4; 4.69 mM KCl; 118 mM NaCl; 1.3 mM CaCl2.2H2O; 0.1% (w/v) BSA; pH 7.4). Monolayers were then washed and equilibrated for 5 min at 37° C. in 100 il KHB-BSA for subsequent recording of fluorescence as an index of intracellular [Ca^2+] ([Ca^2+]i) using a microplate reader (NOVOstar; BMG LABTECH, Aylesbury, U.K.). Briefly, 20 μl of KHB-BSA, with or without ligand, was added into the well (200 μl/s) and fluorescence determined at 0.5 s intervals by excitation at 485 nm and collection of emitted light at 520 nm. Changes in fluorescence above basal levels (before ligand addition) were determined. […] Fmax was obtained by removal of buffer and addition of KHB-BSA buffer containing 4 mM [Ca^2+] and ionomycin (2 μM) to representative wells and the fluorescence measured for 10 min. Fmin was then derived by replacing buffer with Ca^2+-free KHB-BSA buffer containing 2 mM EGTA and fluorescence measured for 10 min. For the determination of concentration-response relationships, the maximal change in [Ca^2+]i was calculated following ligand addition. Concentration-response curves were then fitted using a four-parameter logistic equation to determine EC50 values (GraphPad Software Inc., Calif.).

[2] = biological target: T2, NMUR1 (neuromedin U 1 receptor) (Homo sapiens, UniProt Q9HB89); experiment: Calcium mobilization assay, HEK-NMU1 cells; type: cell-based; settings: HEK293 cells expressing NMU1 receptor, NA = not active
T2 construct: expressed in transfected cells; host or cells: HEK293 (HEK-NMU1)
T2 sequence (Q9HB89 1-426): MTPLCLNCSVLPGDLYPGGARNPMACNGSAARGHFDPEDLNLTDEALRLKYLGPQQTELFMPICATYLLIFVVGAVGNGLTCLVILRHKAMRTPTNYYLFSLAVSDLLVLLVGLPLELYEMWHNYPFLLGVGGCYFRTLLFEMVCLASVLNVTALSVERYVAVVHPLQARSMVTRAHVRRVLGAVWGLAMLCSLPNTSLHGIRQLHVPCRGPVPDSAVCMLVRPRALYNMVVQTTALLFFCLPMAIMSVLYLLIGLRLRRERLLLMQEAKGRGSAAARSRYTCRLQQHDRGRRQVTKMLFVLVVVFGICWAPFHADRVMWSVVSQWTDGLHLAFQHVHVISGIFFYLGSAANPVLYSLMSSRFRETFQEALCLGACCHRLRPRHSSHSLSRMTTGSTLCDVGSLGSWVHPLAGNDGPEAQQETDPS
Experimental: as §1
HEK293 cells expressing either the neuromedin U 1 receptor or neuromedin U 2 receptor (HEK-NMU1 and HEK-NMU2 respectively) were grown to approximately 90% confluence in ELISA strip plates (96-well format) pre-coated with poly-D-lysine (0.1% w/v) and loaded for 45 min at 37° C. with 2 iM fluo-4-AM in Krebs'-HEPES buffer with bovine serum albumin (KHB-BSA; composition: 10 mM HEPES; 4.2 mM NaHCO3; 11.7 mM D-glucose; 1.18 mM MgSO4.7H2O; 1.18 mM KH2PO4; 4.69 mM KCl; 118 mM NaCl; 1.3 mM CaCl2.2H2O; 0.1% (w/v) BSA; pH 7.4). Monolayers were then washed and equilibrated for 5 min at 37° C. in 100 il KHB-BSA for subsequent recording of fluorescence as an index of intracellular [Ca^2+] ([Ca^2+]i) using a microplate reader (NOVOstar; BMG LABTECH, Aylesbury, U.K.). […]

male DIO C57BL/6 mice [3] = experiment: Abdominal fat evaluation of chronically treated animals; type: in vivo, mouse; settings: chronic treatment 21 days, 1603 nMole/kg; vehicle ~8%
Experimental: (§2) FIG. 7. (A) Abdominal fat evaluation of chronically treated animals. Ad libitum fed male DIO C57BL/6 mice were treated with either vehicle or NM4A (2.2 mg/kg; 1603 nMole/kg) every 2 days or NM4A (2.2 mg/kg; 1603 nMole/kg) every 4 days or ^(*)NM4-C16 (2.6 mg/kg; 1603 nMole/kg) every 7 days for 21 days. Subsequently, their abdominal fat was harvested and weighted. Results are expressed as % of abdominal fat per total body weight. (B) Distribution of NM4A in NM4A chronically treated animals (2.2 mg/kg; every 2 days for 28 days).
For three groups of animals treated every 2, 4 and 7 days we also performed abdominal fat evaluation (FIG. 7A).

male DIO C57BL/6 mice [4] = experiment: Hematological parameters of animals treated with NM4-C16; type: in vivo, mouse; settings: 2.6 mg/kg every 7 days for 21 days
Experimental: (§3) Despite limited success with our “double-lipidation” approach, we decided to test NM4-C16 analog in vivo using once weekly subcutaneous injection regimen at the 2.6 mg/kg dose, which is equimolar to previously used NM4A dose (e.g. 1603 nMole/kg).

Water solubility = type: physicochemical
male DIO C57BL/6 mice [5] = experiment: Chronic in vivo experiments in DIO mice (body weight, food intake, gastric emptying); design: species or system mouse; settings: for gastric emptying in experimental animals: s.c. 1603 nMole/kg, chronic regimen
Experimental: FIG. 4. Anorectic effects of NM4A in chronic in vivo experiments. (A) Ad libitum fed male DIO C57BL/6 mice were treated with either vehicle or NM4A (2.2 mg/kg; 1603 nMole/kg) every 2, 4 or 7 days for 21 days. (B) Ad libitum fed male DIO C57BL/6 mice were treated with either vehicle or NM4A (2.2 mg/kg; 1603 nMole/kg) once a week for 21 days. After initial treatment animals were kept either on high-fat diet (FD) or normal diet (ND).
FIG. 6. (A) Comparison of anorectic effects of NM4A & NM4-C16 analogs in chronic in vivo experiments. Ad libitum fed male DIO C57BL/6 mice were treated with either vehicle or NM4A (2.2 mg/kg; 1603 nMole/kg) or NM4-C16 (2.6 mg/kg; 1603 nMole/kg) every 7 days for 21 days. (B) Food intake of animals treated with NM4-C16 (2.6 mg/kg; 1603 nMole/kg) every 7 days for 21 days.
NM4A was characterized further in in vivo chronic experiments. Ad libitum fed male DIO C57BL/6 mice, which were kept on the high fat diet (Cat #D12492, Research Diets, Inc., New Brunswick, N.J.), were treated subcutaneously (s.c.) with either vehicle or NM4A (2.2 mg/kg; 1603 nMole/kg) either every 2, 4 or 7 days for 21 days. […] To determine whether NM4A can be used as an auxiliary in dieting of the obese subjects we tested its efficiency in once weekly regimen at the 2.2 mg/kg dose. In this case, ad libitum fed male DIO C57BL/6 mice were kept either on the high fat diet (FD) or regular diet (ND) during NM4A's administration.
as §3
All animal experiments were approved by the UCLA Animal Care and Use Committee (ARC #1999-173-23) and conformed to local and national guidelines. Ad libitum fed male DIO C57BL/6 mice (n=8 per group) kept on D12492, a high-fat diet composed of 60% Kcal from fat (Research Diets, Inc., New Brunswick, N.J.) were weighed and individually dosed (s.c., 30 min prior to the onset of the dark phase of the light cycle) with either vehicle or NM4A (2.2 mg/kg; 1603 nMole/kg) every 2 days or NM4A (2.2 mg/kg; 1603 nMole/kg) every 4 days or NM4A (2.2 mg/kg; 1603 nMole/kg) every 7 days or NM4-C16 (2.6 mg/kg; 1603 nMole/kg) every 7 days for 21 days and their food intake and body weight were measured daily. […] Briefly, calculated amount of the desired peptide (1 eq) and 10 equivalents of PUREBRIGHT® SL-220 (1 mg: 10 mg) were solubilized in minimal volume of 90% absolute ethyl alcohol in water. Subsequently solution was aliquoted into Eppendorf tubes and freeze-dried. Obtained solid residue was re-solubilized in the proper amount of PBS directly before use by vortexing.

[6] = test system: diet induced obese (DIO) mouse model; experiment: Single dose in vivo anorectic experiments in DIO mouse model; settings: DIO mice
Excerpt: FIG. 3. Single dose in vivo experiments performed in DIO mouse model. (A) Comparison of anorectic effects of NM4 and NM7. (B) NM4 dose response experiments. (C) Comparison of NM4 and NM4A anorectic activity.
Initially we focused on single dose experiments comparing NM4 and NM7 at 5344 nMole/kg dose (FIG. 3).

[7] = Body distribution of NM4A in chronically treated animals; type: in vivo, mouse; settings: 2.2 mg/kg every 2 days for 28 days
Experimental: as §2
To test body distribution of NM-analogs we performed also limited ADME studies in animals that underwent chronic treatment with NM4A every 2 days for 28 days (2.2 mg/kg; 1603 nMole/kg dose).
Ad libitum fed male DIO C57BL/6 mice that underwent chronic treatment with NM4A (2.2 mg/kg; 1603 nMole/kg; dosing every 2 days for 28 days) were sacrificed and their organs/tissues harvested and weighted. […] Obtained homogenate(s) were transferred to 1.5 mL Eppendorf tubes and centrifuged for 10 min at 13000 rpm.

| Compound | EC50 [1] [nM] | EC50 [2] [nM] | abdominal fat content (% of abdominal fat per total body weight) (male DIO C57BL/6 mice [3]) [%] | hematological parameters/blood cell count (male DIO C57BL/6 mice [4]) | water solubility (Water solubility) | body weight, once-weekly administration (male DIO C57BL/6 mice [5]; s.c. 2.6 mg/kg (1603 nMole/kg) every 7 days for 21 days) | gastric emptying in experimental animals (male DIO C57BL/6 mice [5]) | duration of anorectic effects after single dose administration ([6]; 1603 nMole/kg, 2.2 mg/kg) [days] | in vivo activity relative to NM4 ([6]; single dose, FIG. 3C) | body weight, once weekly regimen as auxiliary in dieting (male DIO C57BL/6 mice [5]; 2.2 mg/kg once a week for 21 days, high fat diet (FD) or regular diet (ND)) | anorectic effects, chronic treatment (male DIO C57BL/6 mice [5]; s.c. 2.2 mg/kg every 2 and every 4 days for 21 days, high fat diet) | anorectic effects, chronic treatment, less frequent dosage (male DIO C57BL/6 mice [5]; s.c. 2.2 mg/kg every 7 days for 21 days, high fat diet) | entry into the brain [7] | tissue with highest content [7] |
| --- | --- | --- | --- | --- | --- | --- | --- | --- | --- | --- | --- | --- | --- | --- |
| CC(C)C[C@H](NC(=O)[C@H](Cc1ccccc1)NC(=O)CCCCCNC(=O)[C@@H](N)CS)C(=O)N[C@@H](Cc1ccccc1)C(=O)N[C@@H](CCCNC(=N)N)C(=O)N1Cc2ccccc2C[C@H]1C(=O)N[C@@H](CCCNC(=N)N)C(=O)N[C@@H](CC(N)=O)C(=O)NCCCCCC(=O)N[C@@H](CS)C(N)=O [NM10, C-Ahx-FL-Phe-Arg-Tic-R-Asn-Ahx-C] (H-C[Ahx]FLFR[Tic]RN[Ahx]C-NH2) | 2690 | 3980 |  |  |  |  |  |  |  |  |  |  |  |  |
| CCCCCCCCCCCCCCCCN(CCCCCCCCCCCCCCCC)CCCCCC(=O)NC(C)(C)C(=O)N[C@@H](Cc1ccccc1)C(=O)N[C@@H](CC(C)C)C(=O)N[C@@H](Cc1ccccc1)C(=O)N[C@@H](CCCNC(=N)N)C(=O)N1CCC[C@H]1C(=O)N[C@@H](CCCNC(=N)N)C(=O)N[C@@H](CC(N)=O)C(N)=O [Peptide M4-C16, (c16)2-Ahx-Aib-FL-Phe-Arg-Pro-R-Asn] (X1-[Aib]FLFRPRN-NH2) | 741 ± 32 |  | ~5 | appears to be normal | limited water solubility | sustained weight loss | very limited gastric emptying |  |  |  |  |  |  |  |
| CCCCCCCCCCCCCCCCSCc1cc2cc(c1)CSC[C@H](N)C(=O)NCCCCCC(=O)N[C@@H](Cc1ccccc1)C(=O)N[C@@H](CC(C)C)C(=O)N[C@@H](Cc1ccccc1)C(=O)N[C@@H](CCCNC(=N)N)C(=O)N1Cc3ccccc3C[C@H]1C(=O)N[C@@H](CCCNC(=N)N)C(=O)N[C@@H](CC(N)=O)C(=O)NCCCCCC(=O)N[C@H](C(N)=O)CSC2 [NM16, PalS-X(C-Ahx-FL-Phe-Arg-Tic-R-Asn-Ahx-C)] (H-C[Ahx]FLFR[Tic]RN[Ahx]C-NH2; linker 1-11 via mXylylene(5-CH2SC16H33)) |  | 3980 |  |  |  |  |  |  |  |  |  |  |  |  |
| CCCCCCCCCCCCCCCCNC(=O)CNCC(=O)NC(C)(C)C(=O)N[C@@H](Cc1ccccc1)C(=O)N[C@@H](CC(C)C)C(=O)N[C@@H](Cc1ccccc1)C(=O)N[C@@H](CCCNC(=N)N)C(=O)N1CCC[C@H]1C(=O)N[C@@H](CCCNC(=N)N)C(=O)N[C@@H](CC(N)=O)C(N)=O [Peptide M4A, Ida^NHPal-Aib-FL-Phe-Arg-Pro-R-Asn] | 6.46 ± 0.89 |  | ~5 |  | limited water solubility |  | causes initially gastric emptying | ≤ 20 | at least 3.5 times | additional body weight decrease | potent anorectic effects | limited activity | does not appear to enter the brain effectively | highest content of NM4A is detected in plasma |
